From patent US20220403364A1, “BACTERIA IN 3D POROUS MEDIA” (The Trustees of Princeton University, priority 2019, published 2022)

Tests used:
bacteria [1] = assay: bacterial growth in liquid LB media with no shaking, with antibiotic (light absorbance at 600 nm); type: cell-based
Procedure: (§1) In both figures, different concentrations of ampicillin were tested 1 μg/ml (ref. 511, 521), 2 μg/ml (ref 512, 522), 3 μg/ml (ref 513, 523), 4 μg/ml (ref 514, 524) and 6 μg/ml (ref 515, 525). For FIG. 6B, the different concentrations were added to bacteria in liquid LB media with no shaking.
(§2) In FIGS. 6A-6C, the levels of bacteria were monitored by measuring light absorbance at 600 nm. In some embodiments, the cells or media is irradiated with light from a light source positioned above the cells, and a lens or sensor positioned below the cells then captures the light either being emitted from the cells (i.e., the intensity of light being emitted by a marker gene, etc.) or being transmitted through the cells (i.e., not being absorbed). A processor can then be used to quantify the measured light or sensor signals. Further a processor can also be used to convert the measured light or sensor signals into concentrations or bacterial cell counts, via, e.g., calibration curves. Based on that, various antibiotic performance characteristics can be determined—MIC, minimal bactericidal concentration (MBC), etc.

bacteria [2] = assay: bacterial growth in the 3D porous medium with antibiotic (light absorbance at 600 nm); type: cell-based; settings: porous media
Procedure: In some embodiments, changes in growth/motility due to changes in antibiotic or antibiotic concentrations can be quantified. […] Using an 0.81% gel with different concentrations of kanamycin ([…] (ref 504), 317.5 μg/ml (ref 503), 156.25 μg/ml (ref 502), and 78.125 μg/ml (ref 501)), it can be seen that for the two highest concentrations, there was no growth.
as §1, §2

## CC1(C)S[C@@H]2[C@H](NC(=O)[C@H](N)c3ccccc3)C(=O)N2[C@H]1C(=O)O [ampicillin]
Bacteria [1]; ampicillin 1 μg/ml, FIG. 6B ref 511
  bacterial growth: growth was detected
Bacteria [1]; ampicillin 2 μg/ml, FIG. 6B ref 512
  bacterial growth: growth was detected
Bacteria [1]; ampicillin 3 μg/ml, FIG. 6B ref 513
  bacterial growth: growth was detected
Bacteria [1]; ampicillin 4 μg/ml, FIG. 6B ref 514
  bacterial growth: no growth
Bacteria [1]; ampicillin 6 μg/ml, FIG. 6B ref 515
  bacterial growth: no growth
Bacteria [2]; ampicillin 1 μg/ml, FIG. 6C ref 521
  bacterial growth: showed growth
Bacteria [2]; ampicillin 2 μg/ml, FIG. 6C ref 522
  bacterial growth: only the 1 μg/ml concentration showed growth
Bacteria [2]; ampicillin 3 μg/ml, FIG. 6C ref 523
  bacterial growth: only the 1 μg/ml concentration showed growth
Bacteria [2]; ampicillin 4 μg/ml, FIG. 6C ref 524
  bacterial growth: only the 1 μg/ml concentration showed growth
Bacteria [2]; ampicillin 6 μg/ml, FIG. 6C ref 525
  bacterial growth: only the 1 μg/ml concentration showed growth
